# From ChEMBL document CHEMBL4613250, “Discovery of 4-((2S,4S)-4-Ethoxy-1-((5-methoxy-7-methyl-1H-indol-4-yl)methyl)piperidin-2-yl)benzoic Acid (LNP023), a Factor B Inhibitor Specifically Designed To Be Applicable to Treating a Diverse Array of Complement Mediated Diseases” (J Med Chem, 2020)
# Assays:
# [1] = Mean residence time in Wistar Han rat at 1 mg/kg, iv after 0.5 to 24 hrs by HPLC-MS/MS analysis; type: ADME, organism-based; details: in vivo
# [2] = Clearance in beagle dog at 0.1 mg/kg, iv after 15 mins to 24 hrs by HPLC-MS/MS analysis; type: ADME, organism-based, Canis lupus familiaris; details: in vivo
# [3] = Half life in beagle dog at 0.1 mg/kg, iv after 15 mins to 24 hrs by HPLC-MS/MS analysis; type: ADME, organism-based, Canis lupus familiaris; details: in vivo
# [4] = AUC/dose in Wistar Han rat at 30 mg/kg, po after 0.5 to 24 hrs by HPLC-MS/MS analysis; type: ADME, organism-based; details: in vivo
# [5] = Oral bioavailability in beagle dog at 10 mg/kg after 15 mins to 24 hrs by HPLC-MS/MS analysis; type: ADME, organism-based, Canis lupus familiaris; details: in vivo
# [6] = Tmax in beagle dog at 10 mg/kg, po after 15 mins to 24 hrs by HPLC-MS/MS analysis; type: ADME, organism-based, Canis lupus familiaris; details: in vivo
# [7] = Cmax/dose in beagle dog at 10 mg/kg, po after 15 mins to 24 hrs by HPLC-MS/MS analysis; type: ADME, organism-based, Canis lupus familiaris; details: in vivo
# [8] = Mean residence time in beagle dog at 0.1 mg/kg, iv after 15 mins to 24 hrs by HPLC-MS/MS analysis; type: ADME, organism-based, Canis lupus familiaris; details: in vivo
# [9] = Tmax in Wistar Han rat at 30 mg/kg, po after 0.5 to 24 hrs by HPLC-MS/MS analysis; type: ADME, organism-based; details: in vivo
# [10] = AUC/dose in Wistar Han rat at 1 mg/kg, iv after 0.5 to 24 hrs by HPLC-MS/MS analysis; type: ADME, organism-based; details: in vivo
# [11] = Volume of distribution at steady state in beagle dog at 0.1 mg/kg, iv after 15 mins to 24 hrs by HPLC-MS/MS analysis; type: ADME, organism-based, Canis lupus familiaris; details: in vivo, read-out: Vdss
# [12] = species on record: Canis familiaris; test: animal or person; details: Canis lupus familiaris, beagle, po, 6 h, read-out: INH
# [13] = Volume of distribution at steady state in Wistar Han rat at 1 mg/kg, iv after 0.5 to 24 hrs by HPLC-MS/MS analysis; type: ADME, organism-based; details: in vivo, read-out: Vdss
# [14] = AUC/dose in beagle dog at 10 mg/kg, po after 15 mins to 24 hrs by HPLC-MS/MS analysis; type: ADME, organism-based, Canis lupus familiaris; details: in vivo
# [15] = Half life in Wistar Han rat at 1 mg/kg, iv after 0.5 to 24 hrs by HPLC-MS/MS analysis; type: ADME, organism-based; details: in vivo
# [16] = Oral bioavailability in Wistar Han rat at 30 mg/kg after 0.5 to 24 hrs by HPLC-MS/MS analysis; type: ADME, organism-based; details: in vivo
# [17] = Clearance in Wistar Han rat at 1 mg/kg, iv after 0.5 to 24 hrs by HPLC-MS/MS analysis; type: ADME, organism-based; details: in vivo
# [18] = Cmax/dose in Wistar Han rat at 30 mg/kg, po after 0.5 to 24 hrs by HPLC-MS/MS analysis; type: ADME, organism-based; details: in vivo
# [19] = AUC/dose in beagle dog at 0.1 mg/kg, iv after 15 mins to 24 hrs by HPLC-MS/MS analysis; type: ADME, organism-based, Canis lupus familiaris; details: in vivo
# [20] = species on record: Canis familiaris; test: animal or person; details: Canis lupus familiaris, beagle, po, 12 h, read-out: INH
compound,measurement,setting,value
CCO[C@H]1CCN(Cc2c(OC)cc(C)c3[nH]ccc23)[C@H](c2ccc(C(=O)O)cc2)C1.Cl,MRT,[1],3.4 h
same,clearance,[2],2 mL/min/kg
same,half-life,[3],5.6 h
same,AUC/dose,[4],2100 nM·h
same,bioavailability,[5],60%
same,Tmax,[6],0.8 h
same,Cmax/dose,[7],2200 nM
same,MRT,[8],5.5 h
same,Tmax,[9],2 h
same,AUC/dose,[10],5200 nM·h
same,Vd,[11],0.6 L/kg
same,inhibition in vivo at 3 mg/kg,[12],100%
same,Vd,[13],2.3 L/kg
same,AUC/dose,[14],12700 nM·h
same,half-life,[15],7 h
same,bioavailability,[16],40%
same,clearance,[17],8 mL/min/kg
same,Cmax/dose,[18],410 nM
same,AUC/dose,[19],21000 nM·h
same,inhibition in vivo at 3 mg/kg,[20],55%
